± gives the expanded uncertainty stated by the source.
Assay: molar enthalpy of vaporization or sublimation
Conditions: 298.15 K; Crystal; Calvet Calorimetry

SMILES	molar enthalpy
O=[N+]([O-])c1ccccc1Cl [1-chloro-2-nitrobenzene]	80.9 ± 3 kJ/mol
O=[N+]([O-])c1cccc(Cl)c1 [1-chloro-3-nitrobenzene]	82.5 ± 3 kJ/mol
O=[N+]([O-])c1ccc(Cl)cc1 [1-chloro-4-nitrobenzene]	76.2 ± 4.2 kJ/mol

From the NIST ThermoML archive (doi:10.1016/j.jct.2008.07.012)
